From patent US5834259A, “Process and composition for preparing D-aspartic acid” (Monsanto Company, priority 1996, dated 1998)

Legend:
Type in all cases: biochemical, E. coli K12
[1] = target: T1, L-aspartate-α-decarboxylase (Escherichia coli, UniProt P0A790); test: Re-treatment of Example 3 supernatant fluid with fresh cells (Example 4); details: 37° C.
T1 construct: expressed in transfected cells; host or cells: E. coli W3110 transformed with pIF309 = strain NS3291 (ATCC 98675), whole cells
Description: (§1) In all of the Examples herein, D- and L-aspartic acid isomers were quantified by HPLC using the following precolumn derivatization method. Aspartic acid was converted into diastereomers using ortho-phthalaldehyde and N-acetyl-L-cysteine. Separation of the diastereomers was achieved on a Supelcosil™ LC-18DB, 3μ, 150×4.6 mm column using a mobile phase of A: 20% methanol/80% triethylamine phosphate and B: methanol, and a step gradient as follows: […]
In this Example the supernatant fluid from Example 3 was re-treated with fresh cells. The reaction from Example 3, stopped at 68 hours, was centrifuged for 45 minutes in a GS-3 rotor at 7000 rpm. The supernatant fluid, 990 ml, was separated from the cells. 963 ml of this supernatant fluid was mixed with 137 ml fresh cells and placed in a 2 L fermentor. Bioconversion took place with mixing at 300 rpm, without automatic pH control and at a temperature of 37° C. Samples, approximately 1 ml, were removed over time and analyzed as in Example 3.

[2] = target: T1, L-aspartate-α-decarboxylase; test: Temperature study, 50° C. (Example 9); details: 1.0M, 100 g/l cells
Method: 133.1 g (1 mol) of D/L-aspartic acid was dissolved in deionized H2 O and the pH was adjusted to 7.0 with 10N NaOH, approximately 100 ml. Cells, freshly thawed from -80° C., were added to achieve a final concentration of 100 g/l. Three 2 L fermentors were each charged with 963 ml of substrate solution and 137 ml of cells and then heated to 37° C. and 45° C. while mixing at 300 rpm or heated to 50° C. while mixing at 450 rpm. Samples, approximately 1 ml, were removed over time and pH adjusted to 7.0 with either NaOH or HCl. After centrifugation to remove cells, the supernatant fluid was analyzed for both D- and L-aspartic acid.

[3] = target: T1, L-aspartate-α-decarboxylase; test: Bioconversion of 0.5M D/L-aspartate with NS3291 cells (Example 3)
Method: 66.5 g (0.5M) D/L-aspartate (Sigma, A-9006) was weighed into a 2 L beaker and the pH adjusted to 7.0 with 10N NaOH. The volume was brought to 963 ml with deionized H2 O. 137 ml of cells (NS 3291, described above) were added at a packed cell volume ("PCV") of 7.31 g/10 ml cells resulting in a final volume of 1.1 L. Samples (approximately 1 ml each) were removed over time, centrifuged and the supernatant fluid was analyzed by HPLC for D- and L-aspartic acid content.
as §1
Retention times were 4.19 minutes and 4.54 minutes for D-aspartic acid and L-aspartic acid, respectively.
Samples from bioconversions were centrifuged to remove cells in a microcentrifuge and the supernatant fluid diluted appropriately such that the value determined from the HPLC fell within the linear region of the standard curve. These dilutions were usually between 1:100 and 1:200, made with deionized water.

[4] = target: T1, L-aspartate-α-decarboxylase; test: Activity towards D/L-glutamate and D/L-alanine, D/L-aspartate as control (Example 8); details: for concentration in supernatant fluid / percent remaining: racemate substrate, pH 7.0
Method: D/L-aspartate was run as a control.
Substrates were prepared by dissolving solid amino acid racemate in approximately 75 ml deionized H2 O and adjusting the pH to 7.0 with 10N NaOH. The volume was then brought to 100 ml with deionized H2 O. The cells used were stored frozen for about 1 month and then thawed and stored in a refrigerator for about 1 month prior to running the experiments.
The reaction was run the same as described in the prior Examples. Samples of supernatant fluid, approximately 0.20 ml, were removed over time, centrifuged and stored frozen before analysis by HPLC as described in the prior Examples.

N[C@@H](CC(=O)O)C(=O)O [L-Asp, L-aspartic acid]
concentration in supernatant fluid ([1]; 0.0000 hr): 0.43 mg/mL
concentration in supernatant fluid ([1]; 0.0000 hr, listed as L-aspartic acid): 0.43 mg/mL
concentration in supernatant fluid ([1]; 2.7500 hr): 0.11 mg/mL
percent remaining ([1]; 2.7500 hr): 25.581%
concentration in supernatant fluid ([1]; 13.500 hr): 0.09 mg/mL
percent remaining ([1]; 13.500 hr): 20.930%
concentration in supernatant fluid ([1]; 15.000 hr): 0.08 mg/mL
percent remaining ([1]; 15.000 hr): 18.605%
concentration in supernatant fluid ([1]; 19.500 hr): 0.09 mg/mL
percent remaining ([1]; 19.500 hr): 20.930%
concentration in supernatant fluid ([1]; 23.500 hr): 0.07 mg/mL
percent remaining ([1]; 23.500 hr): 16.279%
concentration in supernatant fluid ([1]; 23.500 hr, listed as L-aspartic acid): 0.07 mg/mL
concentration in supernatant fluid ([1]; 39.000 hr): 0.1 mg/mL
percent remaining ([1]; 39.000 hr): 23.256%
concentration in supernatant fluid ([1]; 47.000 hr): 0.16 mg/mL
percent remaining ([1]; 47.000 hr): 37.209%
concentration in supernatant fluid ([1]; 51.750 hr): 0.23 mg/mL
percent remaining ([1]; 51.750 hr): 53.488%
concentration in supernatant fluid ([1]; 68.500 hr): 0.55 mg/mL
percent remaining ([1]; 68.500 hr): 127.91%
concentration in supernatant fluid ([1]; 68.500 hr, listed as L-aspartic acid): 0.55 mg/mL
concentration in supernatant fluid ([2]; 0.000 hr): 100.0 mg/mL
concentration in supernatant fluid ([2]; 1.000 hr): 98.93 mg/mL
percent remaining ([2]; 1.000 hr): 108.9%
concentration in supernatant fluid ([2]; 3.000 hr): 105.7 mg/mL
percent remaining ([2]; 3.000 hr): 83.78%
concentration in supernatant fluid ([2]; 5.0000 hr): 106.0 mg/mL
percent remaining ([2]; 5.0000 hr): 73.63%
concentration in supernatant fluid ([2]; 7.000 hr): 106.6 mg/mL
percent remaining ([2]; 7.000 hr): 73.63%
concentration in supernatant fluid ([2]; 9.000 hr): 107.3 mg/mL
percent remaining ([2]; 9.000 hr): 70.13%
concentration in supernatant fluid ([2]; 13.50 hr): 108.4 mg/mL
percent remaining ([2]; 13.50 hr): 70.54%
concentration in supernatant fluid ([2]; 23.00 hr): 103.3 mg/mL
percent remaining ([2]; 23.00 hr): 65.98%
concentration in supernatant fluid ([2]; 25.00 hr): 109.0 mg/mL
percent remaining ([2]; 25.00 hr): 65.73%
concentration in supernatant fluid ([2]; 27.00 hr): 103.6 mg/mL
percent remaining ([2]; 27.00 hr): 55.48%
concentration in supernatant fluid ([2]; 32.00 hr): 104.4 mg/mL
percent remaining ([2]; 32.00 hr): 53.33%
concentration in supernatant fluid ([2]; 37.50 hr): 106.5 mg/mL
percent remaining ([2]; 37.50 hr): 58.82%
percent remaining ([2]; 47.00 hr): 52.77%
concentration in supernatant fluid ([2]; 52.00 hr): 107.0 mg/mL
percent remaining ([2]; 52.00 hr): 56.28%
concentration in supernatant fluid ([2]; 57.00 hr): 119.4 mg/mL
percent remaining ([2]; 57.00 hr): 66.89%
concentration in supernatant fluid ([2]; 71.00 hr): 104.2 mg/mL
percent remaining ([2]; 71.00 hr): 52.65%
concentration in supernatant fluid ([2]; 77.00 hr): 105.4 mg/mL
percent remaining ([2]; 77.00 hr): 53.35%
concentration in supernatant fluid ([2]; 81.00 hr): 104.6 mg/mL
percent remaining ([2]; 81.00 hr): 52.69%
concentration in supernatant fluid ([2]; 99.75 hr): 108.1 mg/mL
percent remaining ([2]; 99.75 hr): 53.93%
percent remaining ([3]; 5.5000 hr): 41.739%
percent remaining ([3]; 24.500 hr): 0.5888%
percent remaining ([3]; 26.500 hr): 0.4157%
percent remaining ([3]; 32.500 hr): 0.2078%
percent remaining ([3]; 47.500 hr): 0.1039%
percent remaining ([3]; 52.000 hr): 0.06928%
percent remaining ([3]; 68.000 hr): 1.4894%
substrate specificity of the enzyme [4]: the only substrate for the enzyme
concentration in supernatant fluid ([4]; 0 hr): 26.810 mg/mL
concentration in supernatant fluid ([4]; 3.5 hr): 14.050 mg/mL
percent remaining ([4]; 3.5 hr): 52.406%
concentration in supernatant fluid ([4]; 8.5 hr): 12.660 mg/mL
percent remaining ([4]; 8.5 hr): 47.221%
concentration in supernatant fluid ([4]; 24 hr): 9.4700 mg/mL
percent remaining ([4]; 24 hr): 35.323%
concentration in supernatant fluid ([4]; 55 hr): 0.3300 mg/mL
percent remaining ([4]; 55 hr, 3300 min): 1.2309%
percent remaining ([4]; 55 hr, listed as L-aspartic acid, 3300 min): 1.23%
